# Literature values as cited in patent US11058694B2, “Nutritional supplements for growth enhancement in pre-pubertal adolescents” (Nutritional Growth Solutions LTD, priority 2014, dated 2021).
# What was measured:
# [1] = versus placebo, daily syrup for six months
# [2] = 33 randomized controlled intervention trials
# [3] = 6-12 months follow-up, normal serum zinc levels
molecule,measurement,setting,value
vitamin A,effect of supplementation interventions on growth,vitamin A supplementation,no significant effect on growth
[Fe] [iron],"increase in hemoglobin concentrations, effect size","iron interventions, 95% CI: 0.46, 2.51",1.49
same,effect of supplementation intervention on child growth,iron supplementation,no significant effect
[Zn] [zinc],mean height for age Z-score,[1],decreased to a greater extent than placebo
same,responses in height and in weight increments,[2],significant positive responses
same,height or weight-SDS,[3],did not significantly changed
